Experimental data taken from patent US10725055B1, “Compounds for carbonyl sulfide/carbon disulfide/hydrogen sulfide release and methods of making and using the same” (University of Oregon, priority 2016, dated 2020).
Entries after “also recorded” stand apart in the source; their conditions may differ. Where two headings read alike, the source gives them in different places.

Assays:
[1] = test system: BEAS 2B cells; assay: Bioenergetic analysis in cultured cells (XF24 Extracellular Flux Analyzer); assay type: cell-based, human; settings: for inhibition of cellular bioenergetics: same conditions, 1, 3, 10 μM; for ATP synthesis / maximal respiration / oxygen consumption linked with basal respiration: 1, 3, 10 μM, 24 hours
Source text: Cells were then washed with PBS.

[2] = test system: BEAS 2B cells
[3] = test system: BEAS 2B cells; settings: for LDH levels: 10 μM, 24 hours
Description: Lactate dehydrogenase (LDH) release was determined as a cytotoxicity assay, a measurement of necrotic cell death, as described previously. Briefly, 30 μL of supernatant was saved before addition of MTT and mixed with 100 μL of freshly prepared LDH assay reagent to reach final concentrations of 85 mM lactic acid, 1040 mM nicotinamide adenine dinucleotide (NAD+), 224 mM N-methylphenazonium methyl sulfate (PMS), 528 mM 2-(4-lodophenyl)-3-(4-nitrophenyl)-5-phenyl-2H-tetrazolium chloride (INT) and 200 mM Tris (pH 8.2). The changes in absorbance were read kinetically at 492 nm for 15 min (kinetic LDH assay) on a monochromator-based reader (Powerwave HT, Biotek) at 37° C. LDH activity values are shown as Vmax for the kinetic assays in mOD/min.

[4] = target: CA from bovine erythrocytes (Bos taurus, UniProt P00921); assay type: biochemical
CA from bovine erythrocytes, sequence (P00921 whole entry): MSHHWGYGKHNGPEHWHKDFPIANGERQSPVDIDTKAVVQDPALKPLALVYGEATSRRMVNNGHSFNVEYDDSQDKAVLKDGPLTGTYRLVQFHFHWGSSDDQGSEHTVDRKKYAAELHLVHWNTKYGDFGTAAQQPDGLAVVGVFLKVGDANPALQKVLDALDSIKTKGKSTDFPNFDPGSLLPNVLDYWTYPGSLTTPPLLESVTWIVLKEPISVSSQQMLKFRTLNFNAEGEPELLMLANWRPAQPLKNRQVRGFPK

[5] = Fluorescence response of MeRho-TCA to NaSH and other RSONs
[6] = test system: HeLa cells; assay: Cytoprotection against H2O2-induced oxidative stress, CCK-8; assay type: cell-based; settings: H2O2 100 μM, compound 10-50 μM, 1 hour
[7] = test system: HeLa cells; assay: Cytotoxicity in HeLa cells, CCK-8; settings: 10-100 μM, 2 hour incubation
[8] = not given; remark: listed apart in the source
[9] = test system: HeLa cells; settings: 50 μM compound
[10] = test system: RAW 264.7 cells; settings: 50 μM compound
[11] = H2O2-triggered H2S release from PeroxyTCM/TCM compounds, H2S electrode; settings: for H2S release efficiency: 50 μM compound; for H2S release upon treatment with H2O2: PBS pH 7.4, CA 25 μg/mL
[12] = H2S release from photo-triggerable compounds under UV light, methylene blue (MB) assay; settings: for peaking time for H2S release: 50 μM, LED UV light 365 nm, PBS pH 7.4, CA 25 μg/mL
[13] = NMR monitoring of self-immolation after TCEP reduction; assay type: physicochemical; settings: 1H, 13C{1H}, 19F NMR
Source text: In some embodiments, an azide in the para position of the benzylthiocarbamate was used to function as the H2S-responsive “trigger” for self-immolation and COS release. To facilitate NMR identification of the products, azidobenzylthiocarbamate (donor compound 1 of FIG. 2) was made with a p-fluoroaniline payload, and the corresponding carbamate (donor compound 2 of FIG. 2) as a control donor compound. Although donor compound 2 should undergo the same self-immolative decomposition upon azide reduction, it will release CO2 rather than COS, and thus should not result in H2S donation upon reaction with CA. […] The disappearance of the benzylic peak, loss of the thiocarbonyl carbon peak, and formation of new resonances upon self-immolation by NMR spectroscopy (FIGS. 3A-3C) confirmed that self-immolation occurs. All such changes were observed within 5 minutes of TCEP addition, confirming the rapid self-immolation of the scaffold upon reduction, and were consistent with COS release from the thiocarbamate scaffold upon azide reduction.

[14] = H2S release from azidobenzyl thiocarbamate/carbamate after TCEP reduction in presence of CA, H2S electrode; settings: buffer containing CA; for H2S release upon injection of TCEP: TCEP added
[15] = Total sulfide in whole mouse blood, monobromobimane (mBB) method; settings: 25 μM compound, 30 minutes incubation with excess TCEP
[16] = test system: BEAS 2B cells; remark: listed apart in the source
[17] = absence of esterase
[18] = test system: porcine liver esterase (PLE); assay: Esterase (PLE)-triggered H2S release, H2S-selective electrode
[19] = test system: porcine liver esterase (PLE); assay: H2S release from 5 detected with H2S-responsive fluorescent probe MeRho-Az; settings: 50 μM compound, 5 μM MeRho-Az, CA, 1 U/mL PLE
[20] = at concentrations lower than 30 μM
[21] = COS gas in 10 mM PBS, pH 7.4, no CA

O=C(CCCCCCCCC[P+](c1ccccc1)(c1ccccc1)c1ccccc1)Oc1ccc(-c2cc(=S)ss2)cc1.[Br-] [AP39, reference compound]
inhibition of cellular bioenergetics [1]: No significant inhibition of cellular bioenergetics
cytotoxicity, MTT assay ([2]; at 30 μM): minimal cytotoxicity
cytotoxicity, MTT assay [2, 20]: none
cytotoxicity, LDH assay ([3]; at 30 μM): minimal cytotoxicity
cytotoxicity, LDH assay [3, 20]: none

O=C=S [COS, carbonyl sulfide]
H2S production from COS ([4]; COS gas in deoxygenated PBS, 1 mM CTAB, pH 7.4, with CA): rapid H25 production
H2S formation from COS ([4]; buffer in the absence of CA): negligible current; also recorded: minimal H2S formation
H2S from COS after H2O2 addition [21]: rapid H2S generation
H2S from COS prior to H2O2 addition [21]: No H2S was detected

C1COCCN1.COc1ccc(P(=S)(S)N2CCOCC2)cc1 (stereo not shown) [GYY4137, reference compound]
inhibition of cellular bioenergetics [1]: No significant inhibition of cellular bioenergetics
cytotoxicity, MTT assay, compared to DMSO vehicle ([2]; up to 30 μM): no significant cytotoxicity
cytotoxicity, LDH assay, compared to DMSO vehicle ([3]; up to 30 μM): no significant cytotoxicity

[N-]=[N+]=Nc1ccc(COC(=S)Nc2ccc3c(c2)Oc2ccccc2C32OC(=O)c3ccccc32)cc1 (stereo not shown) [MeRho-TCA, O-(4-Azidobenzyl)-N-methylrhodolthiocarbamate]
fluorescence turn-on ([5]; 50 equivalents of NaSH, PBS, 1 mM CTAB, pH 7.4, over 90 minutes): 65 fold
selectivity of fluorescence response ([5]; vs Cys, GSH, Hcy, S2O3 2-, SO3 2-, SO4 2-, H2O2, NO): excellent selectivity for H2S over other RSONs

CC1(C)OB(c2ccc(COC(=O)Nc3ccc(F)cc3)cc2)OC1(C)C [PeroxyCM-1]
cell viability / protection against H2O2-mediated oxidative stress [6]: attenuated rescue from oxidative stress
cell viability (cytotoxicity) [7]: No significant decrease in cell viability

CC1(C)OB(c2ccc(COC(=S)Nc3ccc(F)cc3)cc2)OC1(C)C [PeroxyTCM-1]
cell viability / protection against H2O2-mediated oxidative stress [6]: significant dose-dependent increase of cell viability
cell viability (cytotoxicity) [7]: No significant decrease in cell viability
H2S release after incubation with H2O2, O2−, or ONOO− ([8]; 50 μM compound, RSONS 500 μM, CA 25 μg/mL, 20 min): resulted in H2S release
H2S release after incubation with other RSONS ([8]; ClO−, HO, 1O2, TBHP, tBuO, Cys, GSH, GSSG, GSNO, NO2, SO4 2−, S2O3 2−, NO, HNO): failed to release H2S
H2S release with H2O2 in the absence of CA (H2O2 10 equiv, no CA): positive H2S release response
HSN2 fluorescence after addition of H2O2 ([9]; H2O2 25 μM or 50 μM): H2O2 dose-dependent increase in HSN2 fluorescence
HSN2 fluorescence in the absence of H2O2 ([9]; HSN2 5 μM): no HSN2 fluorescence was observed
HSN2 signal after addition of PMA ([10]; 500 nM PMA): significant increase in signal from HSN2
HSN2 signal in the absence of PMA ([10]; HSN2 5 μM): no fluorescent signal from HSN2
H2S release efficiency ([11]; 250 μM H2O2): 80%
H2S release efficiency ([11]; 500 μM H2O2): 60%

O=C(Nc1ccc(F)cc1)OCc1ccccc1[N+](=O)[O-] [PhotoCM-1]
H2S release upon UV irradiation with CA ([12]; UV 10 min, CA 25 μg/mL): no H2S release was observed

O=[N+]([O-])c1ccccc1COC(=S)Nc1ccc(F)cc1 [PhotoTCM-1]
peaking time for H2S release [12]: ~10 min
H2S generation in the absence of UV irradiation ([12]; PBS pH 7.4, no UV): did not generate H2S
H2S release upon UV irradiation with CA ([12]; UV 10 min, CA 25 μg/mL): significant enhancement of H2S concentration
H2S upon UV irradiation in the absence of CA ([12]; UV 10 min, no CA): low levels of H2S
H2S upon UV irradiation with CA and acetazolamide (AAA) ([12]; UV, CA 25 μg/mL, AAA 10 μM): significantly reduced
H2S generation with cellular nucleophiles ([12]; cysteine, homocysteine, GSH, GSSG, serine, lysine, in the presence of CA): does not generate H2S

COc1cc(COC(=S)Nc2ccc(F)cc2)c([N+](=O)[O-])cc1OC [PhotoTCM-2]
peaking time for H2S release [12]: ~10 min

Fc1ccc(NC(=S)OCc2ccccc2)cc1 [TCM-1]
H2S release upon UV irradiation with CA ([12]; UV 10 min, CA 25 μg/mL): did not release H2S
cell viability / protection against H2O2-mediated oxidative stress [6]: no protection
cell viability (cytotoxicity) [7]: No significant decrease in cell viability
H2S release upon treatment with H2O2 [11]: did not release H2S

Cc1ccc(NC(=S)OCc2ccccc2)cc1 [TCM-2]
H2S release upon treatment with H2O2 [11]: did not release H2S

[N-]=[N+]=Nc1ccc(COC(=S)Nc2ccc(F)cc2)cc1 [compound 1, O-(4-Azidobenzyl)-N-(4-fluorophenyl)thiocarbamate]
time to NMR changes showing self-immolation after TCEP addition [13]: ≤ 5 min
H2S release upon injection of TCEP [14]: rapid release of H2S
H2S formation before TCEP ([14]; no TCEP): did not result in H2S formation; also recorded: no H2S is formed

[N-]=[N+]=Nc1ccc(COC(=O)Nc2ccc(F)cc2)cc1 [compound 2, O-(4-Azidobenzyl)-N-(4-fluorophenyl)carbamate]
H2S release upon injection of TCEP [14]: no H2S was produced

Cc1ccc(NC(=S)OCc2ccccc2)cc1 [compound 3, O-(4-Benzyl)-N-tolylthiocarbamate]
total sulfide levels in blood [15]: Only samples containing donor 4 with the azide trigger increased total sulfide levels

Cc1ccc(NC(=S)OCc2ccc(N=[N+]=[N-])cc2)cc1 [compound 4]
total sulfide levels in blood [15]: increased total sulfide levels in blood

Cc1ccc(NC(=S)OCc2ccc(OC(=O)C(C)(C)C)cc2)cc1 [compound 5]
ATP synthesis [1]: negatively affected
maximal respiration [1]: negatively affected
oxygen consumption linked with basal respiration [1]: negatively affected
LDH levels [3]: increase in LDH levels
cytotoxicity during live cell imaging [16]: high cytotoxicity
stability in aqueous solution [17]: stable
H2S release with PLE ([18]; 1 U/mL PLE in the presence of CA): immediate H2S release
H2S release with increased PLE ([18]; 20 U/mL PLE, otherwise identical conditions): significantly faster H2S release
rate of H2S production with acetazolamide (AAA) ([18]; PLE, CA, CA inhibitor AAA): significantly reduced the rate of H2S production
H2S generation without esterase ([18]; pH 7.4 PBS, CA 25 μg/mL, no PLE): did not result in H2S generation
fluorescence response of MeRho-Az [19]: fluorescence turn-on consistent with H2S release

Cc1ccc(NC(=O)OCc2ccc(OC(=O)C(C)(C)C)cc2)cc1 [compound 6]
ATP synthesis [1]: increases
maximal respiration [1]: did not negatively impact
oxygen consumption linked with basal respiration [1]: increases
LDH levels [3]: not observed

NC(=S)OCc1ccccc1 [compound 7]
ATP synthesis [1]: no effect
maximal respiration [1]: only slightly decreased maximal respiration at 10 μM
oxygen consumption linked with basal respiration [1]: no effect
cell viability (MTT reduction) ([2]; 10 μM, 24 hours): not observed
LDH levels [3]: not observed
direct cleavage of benzyl thiocarbamate moiety by PLE ([18]; control lacking the ester trigger): not cleaved directly by PLE
